Assay results reported in patent publication US20080118580A1, “ADHESION INHIBITION OF FUNGI” (priority 2001, published 2008).

Key:
[1] = system: Candida albicans strain SC5314; assay: Test for inhibition of the formation of hyphae; assay type: cell-based; conditions: for hyphae formation (in words): at the concentrations used
Procedure: An initial culture of the Candida albicans strain SC5314 was grown overnight in minimal medium (0.67% yeast nitrogen base w/o amino acids (Difco), 2% glucose) up to an optical density of 1 at 600 nm, and washed once in sterile double-distilled H2O. For the induction of hyphae, 100 μl to 900 μl of YPS (1% yeast extract, 2% peptone, 10% horse serum (Sigma)) were added, and incubated at 37° C. with shaking. To test the inhibitory action of different substances, farnesol (50 μl/l), propolis extract (200 ppm in ethanolic solution, Sigma, P 5182, origin: Alsace, France) or fucoidan (2 mg/ml, Sigma, F 5631) were added to the medium. A culture of 100 μl of cell suspension in 900 μl of YPD medium (1% yeast extract, 2% peptone, 2% glucose) which was incubated at 30° C. with shaking was used as the control. To quantify the formation of hyphae, 2×100 cells were counted under the microscope (Zeiss Axioscope) every 20 min. and the germ tubes formed calculated as a percentage of the total cells.

[2] = system: C. albicans; assay: Growth test; assay type: cell-based, Candida albicans; conditions: for Growth rate: YPD medium, 30° C., over 10 hours, reference 0.55
Procedure: The growth rates were measured over 10 hours in the YPD medium already described above. The optical density was initially set at 0.1 OD and the cultures were incubated at 30° C.
Here it was assumed that an optical density of 1 measured at wavelength 600 nm corresponds to about 10^7 cells.

[3] = system: C. albicans culture (strain SC5314); assay: Adhesion test on textiles (tetrazolium blue staining, relative light reflection); assay type: cell-based, Candida albicans
Procedure: For assessment of the inhibitory action of different substances on the adhesion of fungi, a procedure with which this adhesion to textiles can be determined semi-quantitatively was developed.
A 50 ml C. albicans culture (strain SC5314) was grown overnight with shaking in a conical flask at 30° C. up to an optical density (OD) of ca. 1 (measured at 600 nm with a spectrophotometer). After washing once in water, the cells were again incubated for one hour at 30° C. with shaking. Next, 2.5 ml of the culture were diluted in 22.5 ml of YPD medium (1% yeast extract, 2% peptone, 2% glucose) or YPS medium (1% yeast extract, 2% peptone, 10% horse serum). The YPD cultures were incubated with shaking for 2 hours at 30° C., and the YPS cultures for 2 hours at 37° C. for the induction of hyphae.
As desired, test substance was added to the media. In addition a 2.5×2.5 cm piece of test fabric (polyester microfibers) was added to the media. After incubation, the textile pieces were washed three times with wash liquor (Perwoll powder, 12 ml/l water) and twice with water (5 min. with shaking each time), then transferred to a 6-well plate and covered with a layer of YPD-tetrazolium blue agar (1% yeast extract, 2% peptone, 2% glucose, 1.5% agar, 0.5 mg/ml tetrazolium blue chloride).
The depth of the blue coloration due to enzymatic conversion of the dyestuff tetrazolium blue chloride (3,3′-[3,3′-dimethoxy(1,1′-biphenyl)-4,4′-diyl]-bis-[2,5-diphenyl-2H-tetrazolium] dichloride (Sigma, T4375) by cellular dehydrogenases of adhered C. albicans served as a measure for the number of adhered Candida cells and was measured by measurement of the relative light reflection (measurement geometry d/8°) with a differential calorimeter (Dr. Lange Micro Color). The instrument was calibrated in accordance with the manufacturer's instructions. For this, the textile patches were dissolved out from the agar and subjected to the measurement with the differential calorimeter. In accordance with DIN 5033, the differential calorimeter determines the diffuse reflection of the samples at an angle of 8°.

[4] = system: Candida albicans; assay: Wash tests, contamination with Candida albicans; assay type: cell-based; conditions: addition of farnesol to detergent, versus same detergent without
Procedure: The wash tests were performed in standard domestic washing machines (Miele W 918 Novotronic), which had previously been disinfected, in the delicates program at 30° C. The fungal cells were applied onto textile supports (polyamid, 2.5×2.5 cm) (2×10^5 cells/microbe support) and washed together with 3.5 kg of disinfected fill laundry with the detergent formulae. As the control, the wash was performed with the same detergent without farnesol. After the washing and drying in the air, both the residual microbial burden and also the microbial transfer to other, sterile textiles were determined.
The experiments were performed with the detergents A (addition of farnesol) and B (reference).
75 ml of the liquid detergent is added; this corresponds to a farnesol concentration of 20 ppm in the wash liquor.

[5] = description, no concentration given

CC=Cc1ccc(OC)cc1 [Anethole, 1-methoxy-4-(1-propenyl)benzene]
Effective inhibitory concentration (hyphae formation inhibiting concentration) [1]: 0.10% wt. %

CCO [Ethanol]
Growth rate ([2]; 2 wt. %): 0.5 h⁻¹

CC(C)=CCCC(C)=CCCC(C)=CCO [Farnesol, farnesol]
Relative light reflection ([3]; 0.0025 wt. % test substance, polyester microfiber fabric, higher reflection = fewer adhered cells (YPD reference 48.7, YPS 44.7)): 49.3 | adhesion of fungi to textiles (in words) ([3]; concentrations of Table 1): reduction in the adhesion of fungi to textiles down to almost complete inhibition of the adhesion | adhesion of fungal cells to surfaces (in words) ([3]; in solutions which contain the substance): scarcely or not at all | Growth rate ([2]; 0.0025 wt. %): 0.51 h⁻¹ | Number of hyphal cells formed ([1]; YPS + farnesol 0.005 wt. %, t 0 min, 37° C., YPS alone 0): 0 | Number of hyphal cells formed ([1]; YPS + farnesol 0.005 wt. %, t 20 min, YPS alone 0): 0 | Number of hyphal cells formed ([1]; YPS + farnesol 0.005 wt. %, t 40 min, YPS alone 15): 0 | Number of hyphal cells formed ([1]; YPS + farnesol 0.005 wt. %, t 60 min, YPS alone 75): 3 | hyphae formation (in words) [1]: essentially complete prevention | cross contamination of other laundry items (in words) [4]: completely prevented | residual microbial burden (in words) [4]: drastically reduced

CC(C)=CCC/C(C)=C/CO [Geraniol, geraniol]
Effective inhibitory concentration (hyphae formation inhibiting concentration) [1]: 0.01% wt. %

O=C(O)/C=C/c1ccccc1 [Trans-cinnamic acid, trans-cinnamic acid]
Effective inhibitory concentration (hyphae formation inhibiting concentration) [1]: 0.01% wt. %

fucoidan
cell growth (in words) [2, 5]: not affected | Number of hyphal cells formed ([1]; YPS + fucoidan 0.2 wt. %, t 0 min, YPS alone 0): 0 | Number of hyphal cells formed ([1]; YPS + fucoidan 0.2 wt. %, t 20 min, YPS alone 0): 0 | Number of hyphal cells formed ([1]; YPS + fucoidan 0.2 wt. %, t 40 min, YPS alone 15): 4 | Number of hyphal cells formed ([1]; YPS + fucoidan 0.2 wt. %, t 60 min, YPS alone 75): 25 | hyphae formation (in words) [1]: marked reduction | formation of hyphae by Candida albicans (in words) [1, 5]: significantly reduced
